Test results reported in ChEMBL document CHEMBL1158077, “Microbial transformation and butyrylcholinesterase inhibitory activity of (-)-caryophyllene oxide and its derivatives” (J Nat Prod, 2006).

biological target: Cholinesterase (Equus caballus, UniProt P81908); test: Inhibition of horse serum BuChE by Ellman's method
Sequence (P81908 whole entry): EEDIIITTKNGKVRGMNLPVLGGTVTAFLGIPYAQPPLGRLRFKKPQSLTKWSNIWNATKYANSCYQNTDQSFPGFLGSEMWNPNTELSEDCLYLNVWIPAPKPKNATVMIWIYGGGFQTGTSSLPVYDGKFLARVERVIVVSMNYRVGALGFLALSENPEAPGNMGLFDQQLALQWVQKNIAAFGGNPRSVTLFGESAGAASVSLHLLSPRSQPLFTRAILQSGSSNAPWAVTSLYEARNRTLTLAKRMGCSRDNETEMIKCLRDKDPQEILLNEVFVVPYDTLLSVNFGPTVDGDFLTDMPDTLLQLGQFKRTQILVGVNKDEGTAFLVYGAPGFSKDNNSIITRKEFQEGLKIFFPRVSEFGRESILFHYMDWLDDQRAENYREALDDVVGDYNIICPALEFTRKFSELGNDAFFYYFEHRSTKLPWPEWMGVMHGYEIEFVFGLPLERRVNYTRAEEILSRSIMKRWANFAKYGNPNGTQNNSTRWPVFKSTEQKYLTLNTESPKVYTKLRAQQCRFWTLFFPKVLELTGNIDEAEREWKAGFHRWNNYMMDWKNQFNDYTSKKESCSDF

SMILES | IC50
C=C1CC[C@@H]2O[C@]2(C)CC[C@@H]2[C@@H]1CC2(C)C | 208 µM
C=C1CC[C@H]2O[C@]2(C)CC[C@@H]2[C@@H]1C[C@]2(C)CO | 10.9 µM
CC1(C)C[C@@H]2C(=O)CC[C@H]3O[C@]3(C)C[C@H](O)[C@H]21 | 459 µM
CC1(C)C[C@H]2[C@H]1CC[C@]1(C)[C@H](O)CC[C@@]2(O)[C@H]1O | 23.6 µM
CC1(C)C[C@H](O)[C@]23CC[C@@H](O)[C@](C)(CC[C@@H]12)C3 | 456 µM
C=C1CC[C@H]2O[C@]2(C)CC[C@@H]2[C@@H]1C[C@@]2(C)CO | 189 µM
CC1(C)C[C@@H]2[C@@H](CO)CC[C@H]3O[C@]3(C)CC[C@H]21 | 26.4 µM
C=C1CC[C@@H](O)[C@](C)(O)CC[C@@H]2[C@@H]1CC2(C)C | 44 µM
CC1(C)C[C@H](O)[C@]23CC[C@@H](O)[C@](CO)(CC[C@@H]12)C3 | 43.6 µM
CC1(C)C[C@@H]2[C@@H](CO)CC[C@H]3O[C@]3(C)[C@H](O)C[C@H]21 | 155 µM
